The values below come from paper PMC8944975, “Secretin Receptor as a Target in Gastrointestinal Cancer: Expression Analysis and Ligand Development” (Biomedicines, 2022).

Read-outs that look alike come from different tables or passages of the source. Where no end group is shown, it is not given here. [ ]: non-standard residue; d: D form.

Series [1] deals with isolated pancreatic membranes. The conditions noted are these: cited from earlier work. From the text: (§1) Early studies of secretin had shown that its biological activity resides particularly in the amino terminus. […] Despite their lack of activation, these truncated peptides were able to displace native secretin at high concentrations.
The conditions of series [2]: in vivo; cited from earlier work. An excerpt: Due to their vulnerability towards proteolytic degradation, most peptide hormones have short half-lives of only a few minutes. […] To chemically stabilize a peptide ligand by the introduction of artificial amino acids, the amino acid positions crucial for its activity need to be identified. The experimental strategy included design and synthesis of a library of secretin variants that would contain single amino acid substitutions as well as truncations on either end. To characterize a large number of individual peptides ...

The target of series [3] is T1, human SCTR (Homo sapiens, UniProt P47872). In words: GloSensor cAMP assay, agonist mode. Details: expressed in transfected cells. Type of series: cell-based. The method, then: Analysis of downstream signaling of activated SCTR via Gαs G-protein subunits was performed by monitoring intracellular cAMP utilizing the GloSensor system (Promega, Walldorf, Germany) in accordance with the supplier protocol. Measurements were performed using the EnVision Analyzer (PerkinElmer, Rodgau, Germany). For evaluation, concentration–response curves (signal-to-noise ratios plotted) employing the derived statistical mean and SD for estimation of the respective EC50 were calculated using Spotfire Decision Site (TIBCO, Palo Alto, CA, USA). For the analysis of antagonists, a modified protocol was used. Treatment of cells and dilution of the potential antagonist was performed as previously described. Ligand dilutions were added to cells and incubated at room temperature for 5 min. Successively, secretin was added at a final concentration of 0.5 nM for an additional 15 min at room temperature. The emitted chemiluminescence, which correlates with the cAMP concentration, was detected with suitable filters. Evaluation of data was performed as previously described with a calculation of half-maximal inhibitory concentration (IC50).
For orientation: Cyclic AMP is a second messenger, typically raised through Gs and lowered through Gi signalling.

In series [4] the target is T2, human secretin receptor (SCTR) (human, UniProt P47872 23-440). Kind of series: radioligand binding; saturation binding of I^125-secretin on U2OS-SCTR membrane isolates; total, unspecific and specific binding.
The test system of series [5] is pancreatic secretion of both fluid and bicarbonate. The settings on record: cited from earlier work.
Source text: as §1

In series [6] the target is T1, human SCTR. Kind of series: β-arr2-GFP translocation assay run in antagonist mode. The series is classed as cell-based. Set-up: expressed in transfected cells; host or cells: U2OS (human osteosarcoma), stably co-transfected with β-arrestin2-GFP. The conditions noted are these: read-out: IC50, inhibition of β-arr2-GFP translocation (Table 2). From the text: U2OS-SCTR/β-arr2-GFP: human osteosarcoma cell line U2OS (purchased from ATCC/LGC Standards, Wesel, Germany) were stably transfected with plasmids encoding SCTR (Homo sapiens) and the fusion protein β-arrestin2-green fluorescent protein (GFP) (Rattus norvegicus-Aequorea victoria) (β-arr2-GFP).
For analysis of antagonistic effects on SCTR, a slightly modified protocol of the β-arr2-GFP translocation was used. […] For analysis, cells were terminally fixed and permeabilized as previously described. The additional monitoring of IDCC fluorescence in the near-infrared channel (667 nm) provided another measure for receptor binding and activation.

The next series deals with SCTR. The settings on record: variant of rat secretin(5–27); cited from earlier work.
Source text: as §1

The target in series [7] is T2, human secretin receptor (SCTR).
The target is the same in series [8]. In words: cell-based or functional assay.

T1 sequence (P47872 23-440): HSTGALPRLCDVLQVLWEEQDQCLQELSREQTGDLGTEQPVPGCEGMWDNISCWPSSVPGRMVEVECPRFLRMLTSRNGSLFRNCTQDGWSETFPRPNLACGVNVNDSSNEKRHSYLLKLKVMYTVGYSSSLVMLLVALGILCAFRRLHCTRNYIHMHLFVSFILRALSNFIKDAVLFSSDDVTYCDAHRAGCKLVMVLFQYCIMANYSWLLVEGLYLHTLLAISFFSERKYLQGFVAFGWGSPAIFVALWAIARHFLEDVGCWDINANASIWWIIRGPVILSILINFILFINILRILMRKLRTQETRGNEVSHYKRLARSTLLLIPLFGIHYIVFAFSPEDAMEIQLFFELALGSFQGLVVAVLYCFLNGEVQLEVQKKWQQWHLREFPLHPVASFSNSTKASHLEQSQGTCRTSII
T2 sequence (P47872 23-440): as above

With “Secretin(2–27): N-terminally truncated secretin variant (amino acids 2–27) of the literature (SDGTFTSELSRLREGARLQRLLQGLV; ends and bridges not checked; UniProt P09683 29-54, looked up, fragment)”, the “effect on cAMP synthesis / agonistic effects, in words” value in series [1] is on record as “severe reduction on cAMP synthesis”.
Consider `CC(C)C[C@H](NC(=O)CNC(=O)[C@H](CCC(N)=O)NC(=O)[C@H](CC(C)C)NC(=O)[C@H](CC(C)C)NC(=O)[C@H](CCCNC(=N)N)NC(=O)[C@H](CCC(N)=O)NC(=O)[C@H](CC(C)C)NC(=O)[C@H](CCCNC(=N)N)NC(=O)[C@H](C)NC(=O)CNC(=O)[C@H](CCC(=O)O)NC(=O)[C@H](CCCNC(=N)N)NC(=O)[C@H](CC(C)C)NC(=O)[C@H](CCCNC(=N)N)NC(=O)[C@H](CO)NC(=O)[C@H](CC(C)C)NC(=O)[C@H](CCC(=O)O)NC(=O)[C@H](CO)NC(=O)[C@@H](NC(=O)[C@H](Cc1ccccc1)NC(=O)[C@@H](NC(=O)CNC(=O)[C@H](CC(=O)O)NC(=O)[C@H](CO)NC(=O)[C@@H](N)Cc1c[nH]cn1)[C@@H](C)O)[C@@H](C)O)C(=O)N[C@H](C(N)=O)C(C)C` [Peptide 1, reference compound], for which the half-life in [2] is 2.5 to 4 min. Further, the Emax at human SCTR [3] (GloSensor cAMP assay, at least 3 independent experiments in duplicates, read-out: cAMP Production, Intrinsic Activity) was 100%.
In the case of “^125I-labelled W27, Y28-secretin (peptide)”, the Kd in series [4] turned out to be 74 pM.
With [(CH2NH)4,5]secretin, the “effect on pancreatic secretion, in words” value in series [5] was “dose-dependently increased pancreatic secretion of both fluid and bicarbonate”.
Turning to `CC(C)C[C@H](NC(=O)CNC(=O)[C@H](CCC(N)=O)NC(=O)[C@H](CC(C)C)NC(=O)[C@H](CC(C)C)NC(=O)[C@H](CCCNC(=N)N)NC(=O)[C@H](CCC(N)=O)NC(=O)[C@H](CC(C)C)NC(=O)[C@H](CCCNC(=N)N)NC(=O)[C@H](C)NC(=O)CNC(=O)[C@H](CCC(=O)O)NC(=O)[C@H](CCCNC(=N)N)NC(=O)[C@H](CC(C)C)NC(=O)[C@H](CCCNC(=N)N)NC(=O)[C@H](CO)NC(=O)[C@H](CC(C)C)NC(=O)[C@H](CCC(=O)O)NC(=O)[C@H](CO)NC(=O)[C@@H](NC(=O)[C@H](Cc1ccccc1)NC(=O)[C@@H](NC(=O)CN)[C@@H](C)O)[C@@H](C)O)C(=O)N[C@H](C(=O)O)C(C)C` [Peptide 117], on human SCTR [3] (Supplementary Table S2, GloSensor system, at least three independent experiments in duplicates, decimal comma, read-out: cAMP agonism potency), the EC50 was determined as 0.166 µM. The IC50 at human SCTR [6] was 1.92 ± 0.355 µM.
[I17, R25]-secretin(5–27): the affinity in the series on SCTR was 23 nM.
In the case of TSELSRLREGARLQRLLQGLV [peptide 120, secretin(7–27)], in [7], the cAMP production (GloSensor), agonist mode: EC50 came to 3.37 µM and the cAMP production (GloSensor), agonist mode: intrinsic activity [% of secretin] was 90.6%.
[dR]FTSELSRLREAARLQRLLQGLV (ends and bridges not checked) [peptide 136]: the “cAMP production (GloSensor), agonist mode: intrinsic activity [% of secretin]” value (“cAMP production (GloSensor) … [% of secretin]” below) in series [8] amounted to 33.6%.
Take [dR]FTSELSRLREGARLQRLLQALV (ends and bridges not checked) [peptide 144]: the “cAMP production (GloSensor) … [% of secretin]” value in series [8] was found to be 31.1%.
For the molecule [dR]FTSELSRLREGARLQRLLAGLV (ends and bridges not checked) [peptide 143], the “cAMP production (GloSensor) … [% of secretin]” value in [8] came to 27.5%.

The term half-life denotes the time in which the quantity being followed falls by half. Usually Kd stands for the free concentration of one partner at which half of the binding sites on the other are occupied at equilibrium, for simple one-to-one binding. The low end stands for tighter binding, the high end for weaker binding. One may read the IC50 as the concentration needed to halve the response being measured.
